Assay [1] concerns A549 lung cancer cell line. Put plainly: Side population by Hoechst 33342 staining and flow cytometry. Type of assay: cell-based, human.
In assay [2] the test system is HMLE cells. Briefly: EMT induction in human mammary epithelial cells. Type of assay: cell-based. As to the method: Human mammary epithelial cells (HMLE; Dr. Robert A. Weinberg) were plated at a density of about 50% in DMEM/F-12 medium and incubated overnight at 37° C. in a CO2 incubator. The cells were then cultured in inducing medium (DMEM/F-12 (1:1) medium supplemented with insulin, hydrocortisone, 5% FBS, and 2.5 ng/mL TGF-β1) to induce EMT or non-inducing medium (i.e. without TGF-β1). The inducing medium or non-inducing medium was refreshed every 3 days for 12 days. Following EMT treatment, one set of cells were immunostained for E-cadherin, vimentin and fibronectin expression, three widely used EMT markers. Another set of cells was harvested, stained for CD44 and CD24 expression and analyzed by flow cytometry as described in Example 27.
For immunostaining of E-cadherin, vimentin and fibronectin, cells were fixed and permeabilized on the culture plates and incubated with FITC-conjugated antibodies against E-cadherin, vimentin and fibronectin using a standard cell staining protocol. Following removal of unbound antibody, the cells were counterstained with the nuclear dye 4′,6-diamidino-2-phenylindole (DAPI). After staining, phase contrast and fluorescent images of the cells were taken using a fluorescence microscope, equipped with the appropriate filters and a digital camera, using a 100× objective.

Assay [3] concerns mouse bone marrow cells. Put plainly: Side population by Hoechst 33342 staining and flow cytometry. For orientation: In flow cytometry, cells or beads pass a laser one at a time.
Assay [4] relates to ALDH1. Put plainly: ALDEFLUOR assay with or without DEAB. Type of assay: cell-based, human. As to the method:
Aldehyde dehydrogenase (ALDH1) is a useful marker for isolating primitive stem cell populations including normal human mammary stem and progenitor cells as well as transformed tumor-initiating stem cells. In this example, GI-101A, MCF7, MDA-MB-231, Hs 578T, and SUM139PT breast cancer cell lines were tested for activity of the ALDH1 marker using a commercial assay to detect ALDH1 expression and thereby identify tumor stem cells (the ALDEFLUOR® assay (available from Stemcell™ Technologies, Vancouver BC, CA; see Ginestier et al. (2007) Cell Stem Cell 1(5):555-567)). […] The ALDH substrate fluoresces upon cleavage by ALDH.
ALDEFLUOR® assay fluorescence was excited at 488 nm and fluorescence emission was detected using a standard FITC 530/30 band pass filter. The sorting gates were established using propidium iodide stained cells for viability and the ALDEFLUOR® assay-stained cells treated with DEAB as negative controls.
To supplement the flow cytometric analysis, the presence of ALDH in GI-101A was assessed visually by fluorescence microscopy. ALDEFLUOR® assay-labeled cells, with or without DEAB, were counterstained with the nuclear dye 4′,6-diamidino-2-phenylindole (DAPI). Phase contrast and fluorescent images of the cells were taken using a fluorescence microscope, equipped with the appropriate filters and a digital camera, using a 100× objective.
First an ALDEFLUOR assay was performed on GI-101 cells in the presence or absence of DEAB inhibitor as described in Example 21. The ALDEFLUOR stained cells were then subjected to staining with CD44, CD24 and CD49f antibodies. The ALDEFLUOR stained cells were centrifuged for 10 minutes at 300×g at 4° C. and resuspended to a concentration of 2×10^7 cells per mL in cold staining buffer. 50 μL it of cells were added to 12×75 round bottoms tubes on ice for each stain. 10 μL diluted antibody mixture was added and incubated for 30-45 minutes in an ice bath to minimize release of the Hoechst dye. […] The cells were washed twice with 2 mL staining buffer at 4° C. The cells were resuspended in 400 μL it staining buffer and kept on ice until analyzed by flow cytometry.

Entries after “also recorded” stand apart in the source; their conditions may differ.

For `COc1ccc2c3c([nH]c2c1)[C@H](C=C(C)C)N1C(=O)[C@@H]2CCCN2C(=O)[C@@H]1C3` [FTC, Fumitremorgin C], the side population cells in assay [1] (25 μM) stood at 1.31±0.2%; in assay [1] (50 μM), 0.92±0.2%; in assay [1] (100 μM), 0.62±0.1%; in assay [1] (200 μM) it was 0.46±0.08%.

Consider “TGF-β1: transforming growth factor β used to induce EMT”, for which the “CD44^+/CD24^−/low cells” value in assay [2] (2.5 ng/mL, 12 days EMT induction) was 51.9%±3. Further, the “EMT marker expression (E-cadherin, vimentin, fibronectin)” value in assay [2] (12 days post-EMT induction, versus non-induced) is “E-cadherin expression was down-regulated; also recorded: vimentin expression was up-regulated; also recorded: fibronectin expression was up-regulated”.

On to `COC(=O)[C@H]1[C@H]2C[C@@H]3c4[nH]c5cc(OC)ccc5c4CCN3C[C@H]2C[C@@H](OC(=O)c2cc(OC)c(OC)c(OC)c2)[C@@H]1OC` [reserpine], for which the side population cells in assay [1] (12.5 μM) is 1.51±0.1%; in assay [1] (25 μM), 0.56±0.08%; in assay [1] (50 μM), 0.51±0.01%; in assay [1] (200 μM) it was 0.48±0.06%.

Turning to `COc1ccc(CCN(C)CCCC(C#N)(c2ccc(OC)c(OC)c2)C(C)C)cc1OC` (stereo not shown) [Verapamil], the figures for the “side population, percent of registered events” value in assay [3] (50 μM) and in assay [3] (100 μM) were 3.74±0.3% and 1.76±0.1%, respectively.

For `CCN(CC)c1ccc(C=O)cc1` [DEAB], the “ALDH− cells” value in assay [4] (CD44/CD24 staining set) and in assay [4] (CD44/CD49f staining set) was 99.9% each time. The “ALDH+ cells” value is reported as 0.09% in assay [4] (CD44/CD49f staining set) and 0.09% in assay [4] (GI-101 cells, CD44/CD24 staining set).

Values taken from patent publication US20140087362A1 (priority 2012, published 2014).
